Literature values in US10071030B2, “Carrier comprising non-neutralised tocopheryl phosphate” (Phosphagenics Limited, priority 2010, dated 2018).

Settings: from dietary sources

In the case of `COC1=C(OC)C(=O)C(C/C=C(\C)CC/C=C(\C)CC/C=C(\C)CC/C=C(\C)CC/C=C(\C)CC/C=C(\C)CC/C=C(\C)CC/C=C(\C)CC/C=C(\C)CCC=C(C)C)=C(C)C1=O` [CoQ10, ubiquinone], the “bioavailable fraction of CoQ10” value is listed as 5 to 10%.
